Measured values as given in patent US6518243B1, “Desleucyl glycopeptide antibiotics and methods of making same” (Trustees of Princeton University, priority 1999, dated 2003).

What was measured:
Test in all cases: Zone of inhibition screen, 96 well agar array format
Assay type in all cases: cell-based
Set-up in all cases: scale not given here
[1] = system: E. faecalis (CL 4877)
Outline: (§1)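 Compounds are screened one by one for antibacterial effect in an agar array of 96 wells, using the same set of strains throughout.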

[2] = system: S. aureus (ATCC 29213)
Outline: as §1

[3] = system: S. epidermidis (ATCC 12228)
Outline: as §1

[4] = zone of inhibition relative to 1 mg/ml p-chlorobiphenylvancomycin
[5] = zone of inhibition relative to 1 mg/ml stock solution of p-chlorobiphenylvancomycin

CC(NC(=O)CNC(=O)CNC(=O)OCc1ccccc1)C(=O)NC1C(=O)NC(CC(N)=O)C(=O)NC2C(=O)NC3C(=O)NC(C(=O)NC(C(=O)O)c4cc(O)cc(O)c4-c4cc3ccc4O)C(O)c3ccc(c(Cl)c3)Oc3cc2cc(c3OC2OC(CO)C(O)C(O)C2OC2CC(C)(NCc3ccc(-c4ccc(Cl)cc4)cc3)C(O)C(C)O2)Oc2ccc(cc2Cl)C1O (stereo not drawn) [Compound 213]
2: zone score, E. faecalis CL 4877 [1, 4] | zone score, S. aureus ATCC 29213 [2, 4] | zone score, S. epidermidis ATCC 12228 [3, 4]

CC1OC(OC2C(Oc3c4cc5cc3Oc3ccc(cc3Cl)C(O)C3NC(=O)C(NC(=O)C5NC(=O)C(CC(N)=O)NC(=O)C(NC(=O)c5cc6ccccc6[nH]5)C(O)c5ccc(c(Cl)c5)O4)c4ccc(O)c(c4)-c4c(O)cc(O)cc4C(C(=O)O)NC3=O)OC(CO)C(O)C2O)CC(C)(NCc2ccc(-c3ccc(Cl)cc3)cc2)C1O (stereo not drawn) [Compound 291]
2: zone score, E. faecalis CL 4877 [1, 4] | zone score, S. aureus ATCC 29213 [2, 4] | zone score, S. epidermidis ATCC 12228 [3, 4]

CC1OC(OC2C(Oc3c4cc5cc3Oc3ccc(cc3Cl)C(O)C3NC(=O)C(NC(=O)C5NC(=O)C(CC(N)=O)NC(=O)C(NC(=O)c5ccccn5)C(O)c5ccc(c(Cl)c5)O4)c4ccc(O)c(c4)-c4c(O)cc(O)cc4C(C(=O)O)NC3=O)OC(CO)C(O)C2O)CC(C)(NCc2ccc(-c3ccc(Cl)cc3)cc2)C1O (stereo not drawn) [Compound 312]
2: zone score, E. faecalis CL 4877 [1, 4] | zone score, S. aureus ATCC 29213 [2, 4] | zone score, S. epidermidis ATCC 12228 [3, 4]

CSCCC(NC=O)C(=O)NC1C(=O)NC(CC(N)=O)C(=O)NC2C(=O)NC3C(=O)NC(C(=O)NC(C(=O)O)c4cc(O)cc(O)c4-c4cc3ccc4O)C(O)c3ccc(c(Cl)c3)Oc3cc2cc(c3OC2OC(CO)C(O)C(O)C2OC2CC(C)(NCc3ccc(-c4ccc(Cl)cc4)cc3)C(O)C(C)O2)Oc2ccc(cc2Cl)C1O (mixture of isomers) [Compound 326]
2: zone score, E. faecalis CL 4877 [1, 4] | zone score, S. aureus ATCC 29213 [2, 4] | zone score, S. epidermidis ATCC 12228 [3, 4]

CC1OC(OC2C(Oc3c4cc5cc3Oc3ccc(cc3Cl)C(O)C3NC(=O)C(NC(=O)C5NC(=O)C(CC(N)=O)NC(=O)C(NC(=O)c5ccc(S(N)(=O)=O)cc5)C(O)c5ccc(c(Cl)c5)O4)c4ccc(O)c(c4)-c4c(O)cc(O)cc4C(C(=O)O)NC3=O)OC(CO)C(O)C2O)CC(C)(NCc2ccc(-c3ccc(Cl)cc3)cc2)C1O (stereo not drawn) [Compound 269]
2: zone score, E. faecalis CL 4877 [1, 4] | zone score, S. aureus ATCC 29213 [2, 4] | zone score, S. epidermidis ATCC 12228 [3, 4]

CC1OC(OC2C(Oc3c4cc5cc3Oc3ccc(cc3Cl)C(O)C3NC(=O)C(NC(=O)C5NC(=O)C(CC(N)=O)NC(=O)C(NC(=O)CC(N)C(N)=O)C(O)c5ccc(c(Cl)c5)O4)c4ccc(O)c(c4)-c4c(O)cc(O)cc4C(C(=O)O)NC3=O)OC(CO)C(O)C2O)CC(C)(NCc2ccc(-c3ccc(Cl)cc3)cc2)C1O (stereo not drawn) [Compound 59]
2: zone score, E. faecalis CL 4877 [1, 5] | zone score, S. aureus ATCC 29213 [2, 5] | zone score, S. epidermidis ATCC 12228 [3, 5]

CC1OC(OC2C(Oc3c4cc5cc3Oc3ccc(cc3Cl)C(O)C3NC(=O)C(NC(=O)C5NC(=O)C(CC(N)=O)NC(=O)C(NC(=O)CCCN)C(O)c5ccc(c(Cl)c5)O4)c4ccc(O)c(c4)-c4c(O)cc(O)cc4C(C(=O)O)NC3=O)OC(CO)C(O)C2O)CC(C)(NCc2ccc(-c3ccc(Cl)cc3)cc2)C1O (stereo not drawn) [Compound 65]
2: zone score, E. faecalis CL 4877 [1, 5] | zone score, S. aureus ATCC 29213 [2, 5] | zone score, S. epidermidis ATCC 12228 [3, 5]

CC1OC(OC2C(Oc3c4cc5cc3Oc3ccc(cc3Cl)C(O)C3NC(=O)C(NC(=O)C5NC(=O)C(CC(N)=O)NC(=O)C(NC(=O)c5cccc[n+]5[O-])C(O)c5ccc(c(Cl)c5)O4)c4ccc(O)c(c4)-c4c(O)cc(O)cc4C(C(=O)O)NC3=O)OC(CO)C(O)C2O)CC(C)(NCc2ccc(-c3ccc(Cl)cc3)cc2)C1O (stereo not drawn) [Compound 313]
2: zone score, E. faecalis CL 4877 [1, 4] | zone score, S. aureus ATCC 29213 [2, 4] | zone score, S. epidermidis ATCC 12228 [3, 4]
